Laboratory results: patent US9440982B2 (Eolas Therapeutics, Inc., priority 2012, dated 2016)
Where two headings read alike, the source gives them in different places.

Target: T1, OX1 (Homo sapiens, UniProt O43613)
T1 construct: expressed in transfected cells; host or cells: CHO (CHO-OX1, kept under selection antibiotic)
T1 sequence (O43613 1-425): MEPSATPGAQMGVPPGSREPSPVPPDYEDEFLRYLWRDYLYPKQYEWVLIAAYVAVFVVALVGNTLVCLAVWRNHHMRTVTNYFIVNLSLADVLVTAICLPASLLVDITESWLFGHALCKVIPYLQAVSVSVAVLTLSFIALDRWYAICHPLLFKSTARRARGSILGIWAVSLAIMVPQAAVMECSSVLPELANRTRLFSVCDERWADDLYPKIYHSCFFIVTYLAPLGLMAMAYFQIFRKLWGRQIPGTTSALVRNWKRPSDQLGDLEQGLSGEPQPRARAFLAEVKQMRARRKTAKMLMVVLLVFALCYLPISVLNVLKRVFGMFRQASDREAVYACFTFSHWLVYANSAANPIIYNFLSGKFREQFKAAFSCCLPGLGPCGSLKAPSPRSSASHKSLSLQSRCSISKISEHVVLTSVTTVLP
Assay: Orexin receptor cell-based functional assay, [Ca2+]i by FLIPR, CHO-OX1 cells
Details: CHO-OX1 cells, EC90 of OXA
Description: Measurement of [Ca^2+]i using a FLIPR: CHO—OX1 or CHO—OX2 cells are seeded into black-walled clear-base 384-well plates (Costar) at a density of 20,000 cells per well in F12-K medium supplemented with 10% FBS and selection antibiotic (500 ug/ml G418 or 15 ug/ml Blasticidin) and cultured overnight. The cells are incubated with equal volume of calcium4 loading buffer (Molecular Devices, Inc.) containing 2.5 mM probenecid at 37° C. for 30 min, followed by putative OX1 or OX2 receptor antagonists (dose-range 0.1 nM-10 μM) for another 30 min.
The cells are incubated with equal volume of calcium6 loading buffer (Molecular Devices, Inc.) containing 2.5 mM probenecid at 37° C. for 2 h, followed by test compounds (dose-range 0.1 nM-10 μM) for another 30 min.

[1] = Table 2, read-out: IC50 Bioactivity OX1
[2] = [Ca2+]i by FLIPR, antagonist dose-range 0.1 nM-10 μM, read-out: OX1

Structure (SMILES) | IC50 [1] [nM] | IC50 [2] [nM]
Cc1nc(C(=O)N2CCC[C@@H](C)[C@H]2CNc2cccc3cccnc23)c(-c2ccc(F)cc2)s1 (racemic) [Example 74, rac-cis-(3-Methyl-2-((quinolin-8-ylamino)methyl)piperidin-1-yl)(5-(4-fluorophenyl)-2-methylthiazol-4-yl)methanone] | 58 | 
Cc1nc(C(=O)N2CCC[C@@H](C)[C@H]2CNc2nccnc2Cl)c(-c2ccc(F)cc2)s1 (racemic) [Example 121, rac-cis-(2-(((3-Chloropyrazin-2-yl)amino)methyl)-3-methylpiperidin-1-yl)(5-(4-fluorophenyl)-2-methylthiazol-4-yl)methanone] | > 1000 | 
CC[C@@H]1CCCN(C(=O)c2nc(C)sc2-c2ccc(F)cc2)[C@@H]1CNc1ccc(C(F)(F)F)cn1 (racemic) [Example 76, rac-cis-(3-Ethyl-2-(((5-(trifluoromethyl)pyridin-2-yl)amino)methyl)piperidin-1-yl)(5-(4-fluorophenyl)-2-methylthiazol-4-yl)methanone] | 300 | 
Cc1nc(C(=O)N2CCC[C@H](C)[C@H]2CNc2ncc(Cl)cn2)c(-c2ccc(F)cc2)s1 (racemic) [Example 96, rac-trans-(2-(((5-Chloropyrimidin-2-yl)amino)methyl)-3-methylpiperidin-1-yl)(5-(4-fluorophenyl)-2-methylthiazol-4-yl)methanone] | 18 | 
Cc1nc(C(=O)N2CC3CCCCC3C2CNC(=O)c2cccc3occc23)c(-c2ccccc2)s1 (single isomer, unassigned) [Example 70] | 170 | 
CCNC1CCC(CNC(=O)c2cccc3cccnc23)N(C(=O)c2sc(C)nc2-c2ccccc2)C1 (racemic) [Example 46, N-((5-(Ethylamino)-1-(2-methyl-4-phenylthiazole-5-carbonyl)piperidin-2-yl)methyl)quinoline-8-carboxamide] | < 10000 | 
Cc1nc(C(=O)N2CC(F)(F)CCC2CNC(=O)c2cccc3cccnc23)c(-c2ccccc2)s1 (racemic) [Example 56, rac-N-((5,5-Difluoro-1-(2-methyl-5-phenylthiazole-4-carbonyl)piperidin-2-yl)methyl)quinoline-8-carboxamide] | < 100 | 
Cc1ccc(-n2ccnn2)c(C(=O)N2CCC[C@@H](C)[C@H]2CNc2ccc(C(F)(F)F)cn2)c1 (racemic) [Example 115, rac-cis-(3-Methyl-2-(((5-(trifluoromethyl)pyridin-2-yl)amino)methyl)piperidin-1-yl)(5-methyl-2-(1H-1,2,3-triazol-1-yl)phenyl)methanone] | 10 | 
Cc1ccc(-c2ncco2)c(C(=O)N2CCC[C@@H](C)[C@H]2CNc2ccc(C(F)(F)F)cn2)c1 (racemic) [Example 113, rac-cis-(3-Methyl-2-(((5-(trifluoromethyl)pyridin-2-yl)amino)methyl)piperidin-1-yl)(5-methyl-2-(oxazol-2-yl)phenyl)methanone] | 25 | 
Cc1nc(C(=O)N2CCC[C@@H](C)[C@H]2CNc2ccc(Cl)cn2)c(-c2ccc(F)cc2)s1 (racemic) [Example 18, rac-cis-(2-(((5-Chloropyridin-2-yl)amino)methyl)-3-methylpiperidin-1-yl)(5-(4-fluorophenyl)-2-methylthiazol-4-yl)methanone] | 16 | 
NC1CCC(CNC(=O)c2cccc3cccnc23)N(C(=O)c2ccccc2-c2ccccc2)C1 (racemic) [Example 39, N-((5-Amino-1-(biphenylcarbonyl)piperidin-2-yl)methyl)quinoline-8-carboxamide] | 30 | 
Cc1nc(C(=O)N2CCC[C@@H](C)[C@H]2CNc2cc(C(F)(F)F)ccn2)c(-c2ccc(F)cc2)s1 (racemic) [Example 21, rac-cis-(5-(4-Fluorophenyl)-2-methylthiazol-4-yl)(3-methyl-2-(((4-(trifluoromethyl)pyridin-2-yl)amino)methyl)piperidin-1-yl)methanone] | 24 | 
Cc1nc(-c2ccccc2)c(C(=O)N2C(C)CCCC2CCOc2ccccc2)s1 (racemic) [Example 30, rac-(2-Methyl-4-phenylthiazol-5-yl)(2-methyl-6-(2-phenoxyethyl)piperidin-1-yl)methanone] | 220 | 
CC(=O)O[C@H]1C[C@@H](CNC(=O)c2cccc3cccnc23)N(C(=O)c2ccccc2-c2ccccc2)C1 [Example 131, (3S,5S)-1-([1,1′-Biphenyl]-2-carbonyl)-5-((quinoline-8-carboxamido)methyl)pyrrolidin-3-yl acetate] | 53 | 
C[C@@H]1CCCN(C(=O)c2ccccc2Oc2ccccc2)[C@@H]1CNc1ccc(C(F)(F)F)cn1 (racemic) [Example 118, rac-cis-(3-Methyl-2-(((5-(trifluoromethyl)pyridin-2-yl)amino)methyl)piperidin-1-yl) (2-phenoxyphenyl)methanone] | 262 | 
COc1ccnc(NC[C@@H]2[C@H](C)CCCN2C(=O)c2nc(C)sc2-c2ccc(F)cc2)n1 (racemic) [Example 17, rac-cis-(5-(4-Fluorophenyl)-2-methylthiazol-4-yl)(2-(((4-methoxypyrimidin-2-yl)amino)methyl)-3-methylpiperidin-1-yl)methanone] | 52 | 
Cc1nc(C(=O)N2CC(F)(F)CCC2CNC(=O)c2cccc3cccnc23)c(-c2cccc(F)c2)s1 (racemic) [Example 52, rac-N-((5,5-Difluoro-1-(5-(3-fluorophenyl)-2-methylthiazole-4-carbonyl)piperidin-2-yl)methyl)quinoline-8-carboxamide] | 1 | 
Cc1nc(C(=O)N2C[C@H]3CCC[C@H]3C2COc2nc3ccccc3o2)c(-c2ccc(F)cc2)s1 (mixture of isomers) [Example 102, (1-((Benzo[d]oxazol-2-yloxy)methyl)hexahydrocyclopenta[c]pyrrol-2(1H)-yl)(5-(4-fluorophenyl)-2-methylthiazol-4-yl)methanone] | > 1000 | 
CO[C@@H]1CCCN(C(=O)c2nc(C)sc2-c2ccc(F)cc2)[C@@H]1CNc1nc2ccccc2s1 (racemic) [Example 94, rac-cis-(2-((Benzo[d]thiazol-2-ylamino)methyl)-3-methoxypiperidin-1-yl)(5-(4-fluorophenyl)-2-methylthiazol-4-yl)methanone] | 76 | 

Now from value to compound:

IC50 [1] [nM] | IC50 [2] [nM] | Structure (SMILES)
 | 21 | Cc1ccc(-n2nccn2)c(C(=O)N2CC3CCCC3C2CNc2ccc(C(F)(F)F)cn2)c1 (centres unmarked) [Example A69, (5-Methyl-2-(2H-1,2,3-triazol-2-yl)phenyl)(1-(((5-(trifluoromethyl)pyridin-2-yl)amino)methyl)hexahydrocyclopenta[c]pyrrol-2(1H)-yl)methanone]
 | 5 | COc1ccc(-n2nccn2)c(C(=O)N2CCC[C@@H](C)[C@H]2CNc2ncc(C(F)(F)F)cn2)c1F [Example A339, (2-Fluoro-3-methoxy-6-(2H-1,2,3-triazol-2-yl)phenyl)((2S,3R)-3-methyl-2-(((5-(trifluoromethyl)pyrimidin-2-yl)amino)methyl)piperidin-1-yl)methanone]
 | > 1000 | Cc1ccc(-n2cnc(C(F)(F)F)n2)c(C(=O)N2CCC[C@@H](C)[C@H]2CNc2ccc(C#N)cn2)c1 [Example A51, 6-((((2S,3R)-3-Methyl-1-(5-methyl-2-(3-(trifluoromethyl)-1H-1,2,4-triazol-1-yl)benzoyl)piperidin-2-yl)methyl)amino)nicotinonitrile]
 | 1100 | Cc1ccc(-c2ccnn2C)c(C(=O)N2CCC[C@@H](C)[C@H]2CNc2ccc(F)cn2)c1 [Example A61, ((2S,3R)-2-(((5-Fluoropyridin-2-yl)amino)methyl)-3-methylpiperidin-1-yl)(5-methyl-2-(1-methyl-1H-pyrazol-5-yl)phenyl)methanone]
 | 19 | Cc1c(F)ccc(-n2nccn2)c1C(=O)N1CCC[C@@H](C)[C@H]1CNc1ccc(C(F)(F)F)cn1 [Example A384, (3-Fluoro-2-methyl-6-(2H-1,2,3-triazol-2-yl)phenyl)((2S,3R)-3-methyl-2-(((5-(trifluoromethyl)pyridin-2-yl)amino)methyl)piperidin-1-yl)methanone]
 | 7 | Cc1nc(C(=O)N2CCC[C@H](C)[C@H]2CNc2ccc(C(F)(F)F)cn2)c(-c2ccc(F)cc2)s1 (racemic) [Example A65, rac-trans-(5-(4-Fluorophenyl)-2-methylthiazol-4-yl)(3-methyl-2-(((5-(trifluoromethyl)pyridin-2-yl)amino)methyl)piperidin-1-yl)methanone]
 | 70 | Cc1ccc(-c2cnn(C)c2)c(C(=O)N2CC3CCCC3C2CNc2ccc(C(F)(F)F)cn2)c1 (centres unmarked) [Example A71, (5-Methyl-2-(1-methyl-1H-pyrazol-4-yl)phenyl)(1-(((5-(trifluoromethyl)pyridin-2-yl)amino)methyl)hexahydrocyclopenta[c]pyrrol-2(1H)-yl)methanone]
